Measurements from patent US20130158075A1, “HETEROCYCLIC COMPOUNDS AS DGAT1 INHIBITORS” (PIRAMAL ENTERPRISES LIMITED, priority 2010, published 2013).
Where a name gives a salt, the structure may show the parent alone.

Key:
[1] = molecular target: T1, hDGAT1 (Homo sapiens, UniProt O75907); assay: In-vitro DGAT1 assay with hDGAT1 microsomes from Sf9 cells (14C oleoyl CoA, scintillation counting); type: biochemical; conditions: for inhibition at 1 µM: read-out: Percentage inhibition of hDGAT1; for Percentage inhibition of hDGAT1: at 1 μM
T1 construct: made in house; host or cells: Sf9 insect cells (baculovirus); microsomal fraction
T1 sequence (O75907 1-488): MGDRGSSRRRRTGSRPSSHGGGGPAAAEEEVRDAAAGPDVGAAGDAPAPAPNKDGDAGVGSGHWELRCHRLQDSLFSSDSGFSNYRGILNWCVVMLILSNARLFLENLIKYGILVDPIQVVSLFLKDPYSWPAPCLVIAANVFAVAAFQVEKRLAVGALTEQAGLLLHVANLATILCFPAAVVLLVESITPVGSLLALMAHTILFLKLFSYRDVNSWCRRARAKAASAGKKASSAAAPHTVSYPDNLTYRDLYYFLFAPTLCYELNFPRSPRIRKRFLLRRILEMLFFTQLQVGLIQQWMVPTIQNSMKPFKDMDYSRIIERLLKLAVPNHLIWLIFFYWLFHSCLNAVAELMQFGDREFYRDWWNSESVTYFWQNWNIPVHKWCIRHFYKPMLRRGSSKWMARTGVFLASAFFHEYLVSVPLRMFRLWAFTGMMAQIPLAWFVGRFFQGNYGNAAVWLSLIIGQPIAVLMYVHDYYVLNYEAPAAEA
Method in brief: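 Microsomes from Sf9 cells infected with hDGAT1 baculovirus (MOI 5, harvested ~66-72 h) were incubated with [14C]oleoyl-CoA and 1,2-dioleoyl-sn-glycerol at 37 °C for 10 min, in duplicate. After alkaline ethanol stop, triglycerides were heptane-extracted and counted by liquid scintillation; percent inhibition was plotted against compound concentration (nM).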

[2] = molecular target: DGAT2 (Homo sapiens, UniProt Q96PD7); conditions: cited from earlier work
[3] = system: DGAT1 mediated retinyl-ester formation in Caco-2 cells; conditions: cited from earlier work

Sequence of DGAT2 (Q96PD7 whole entry, species assumed): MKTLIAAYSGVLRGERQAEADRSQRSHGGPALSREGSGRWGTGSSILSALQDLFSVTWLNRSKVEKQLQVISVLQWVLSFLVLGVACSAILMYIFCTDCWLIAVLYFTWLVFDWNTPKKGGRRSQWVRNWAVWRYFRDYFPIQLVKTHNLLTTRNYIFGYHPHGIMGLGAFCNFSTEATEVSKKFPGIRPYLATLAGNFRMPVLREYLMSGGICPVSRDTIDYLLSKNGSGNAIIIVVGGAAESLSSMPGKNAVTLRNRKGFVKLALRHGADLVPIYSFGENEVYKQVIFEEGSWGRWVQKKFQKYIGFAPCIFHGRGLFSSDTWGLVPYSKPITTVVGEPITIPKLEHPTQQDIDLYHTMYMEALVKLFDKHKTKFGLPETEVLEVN

Row | SMILES | inhibition at 1 µM [1] | other results
1 | O=C(Nc1ccc(-c2cnc(CNS(=O)(=O)C(F)(F)F)s2)cc1)Nc1c(F)cc(F)cc1F [Example 547, 1,1,1-Trifluoro-N-((5-(4-(3-(2,4,6-trifluorophenyl)ureido)phenyl)thiazol-2-yl)methyl)methanesulfonamide] | > 50% | –
2 | O=C(Nc1ccc(-c2cnc(CNS(=O)(=O)C(F)(F)F)s2)cc1)NC1CCCCC1 [Example 548, N-((5-(4-(3-Cyclohexylureido)phenyl)thiazol-2-yl)methyl)-1,1,1-trifluoro methanesulfonamide] | – | Percentage inhibition of hDGAT1 [1]: ++ (>50 % Inhibition)
3 | O=C(Nc1ccc(-c2cnc(CNS(=O)(=O)C(F)(F)F)s2)cc1)Nc1ccc(C(F)(F)F)cc1 [Example 549, 1,1,1-Trifluoro-N-((5-(4-(3-(4-(trifluoromethyl)phenyl)ureido)phenyl)thiazol-2-yl)methyl)methanesulfonamide] | > 50% | –
4 | O=C(Nc1ccccc1)Nc1ccc(-c2cnc(CNS(=O)(=O)C(F)(F)F)s2)cc1 [Example 550, 1,1,1-Trifluoro-N-((5-(4-(3-phenylureido)phenyl)thiazol-2-yl)methyl)methane sulfonamide] | > 50% | –
5 | O=C(Nc1ccc(-c2cnc(CNS(=O)(=O)C(F)(F)F)s2)cc1)c1ccccc1Cl [Example 551] | – | Percentage inhibition of hDGAT1 [1]: + (20-50% Inhibition)
6 | O=C(Nc1ccc(-c2cnc(CNS(=O)(=O)C(F)(F)F)s2)cc1)c1ccc(C(F)(F)F)cc1 [Example 552, 4-(Trifluoromethyl)-N-(4-(2-((trifluoromethylsulfonamido)methyl)thiazol-5-yl)phenyl)benzamide] | > 50% | –
7 | O=S(=O)(Nc1ccc(-c2cnc(CNS(=O)(=O)C(F)(F)F)s2)cc1)c1ccccc1 [Example 553, N-(4-(2-((Trifluoromethylsulfonamido)methyl)thiazol-5-yl)phenyl)benzene sulfonamide] | 20 to 50% | –
8 | CC(C)(NS(=O)(=O)C(F)(F)F)c1ncc(-c2ccc(NC(=O)Nc3ccccc3Cl)cc2)s1 [Example 562, N-(2-(5-(4-(3-(2-Chlorophenyl)ureido)phenyl)thiazol-2-yl)propan-2-yl)-1,1,1-trifluoromethanesulfonamide] | > 50% | –
9 | CC(C)(NS(=O)(=O)C(F)(F)F)c1ncc(-c2ccc(NC(=O)Nc3ccccc3F)cc2)s1 [Example 563, 1,1,1-Trifluoro-N-(2-(5-(4-(3-(2-fluorophenyl)ureido)phenyl)thiazol-2-yl)propan-2-yl)methanesulfonamide] | > 50% | –
10 | CC(C)(NS(=O)(=O)C(F)(F)F)c1ncc(-c2ccc(NC(=O)Nc3cc(F)cc(F)c3)cc2)s1 [Example 564, N-(2-(5-(4-(3-(3,5-Difluorophenyl)ureido)phenyl)thiazol-2-yl)propan-2-yl)-1,1,1-trifluoromethanesulfonamide] | > 50% | –
11 | CC(C)(NS(=O)(=O)C(F)(F)F)c1ncc(-c2ccc(NC(=O)Nc3cc(F)c(F)cc3F)cc2)s1 [Example 565, 1,1,1-Trifluoro-N-(2-(5-(4-(3-(2,4,5-trifluorophenyl)ureido)phenyl)thiazol-2-yl)propan-2-yl)methanesulfonamide] | > 50% | –
12 | CC(C)(NS(=O)(=O)C(F)(F)F)c1ncc(-c2ccc(NC(=O)Nc3c(F)cc(F)cc3F)cc2)s1 [Example 566, 1,1,1-Trifluoro-N-(2-(5-(4-(3-(2,4,6-trifluorophenyl)ureido)phenyl)thiazol-2-yl)propan-2-yl)methanesulfonamide] | 20 to 50% | –
13 | CC(C)C(NC(=O)c1ccc(-c2ccc(Nc3nc4ccc(F)cc4s3)cc2)cc1)C(=O)O (stereo not drawn) [XP620, 2-(4′-(6-fluorobenzo[d]thiazol-2-ylamino)biphenyl-4-ylcarboxamido)-3-methylbutanoic acid] | – | activity against DGAT2 [2]: no activity; block of DGAT1 mediated retinyl-ester formation [3]: able to block

Continued, in another order:

Row | inhibition at 1 µM [1] | SMILES | other results
14 | > 50% | CC(C)(NS(=O)(=O)C(F)(F)F)c1ncc(-c2ccc(NC(=O)NC3CCCCC3)cc2)s1 [Example 567, N-(2-(5-(4-(3-Cyclohexylureido)phenyl)thiazol-2-yl)propan-2-yl)-1,1,1-trifluoromethanesulfonamide] | –
15 | 20 to 50% | CC(C)(NS(=O)(=O)C(F)(F)F)c1ncc(-c2ccc(NS(=O)(=O)c3ccccc3)cc2)s1 [Example 568, N-(4-(2-(2-(Trifluoromethylsulfonamido)propan-2-yl)thiazol-5-yl)phenyl)benzenesulfonamide] | –
16 | 20 to 50% | NCCc1ncc(-c2ccc(NC(=O)Nc3cc(F)cc(F)c3)cc2)s1 [Example 574, 1-(4-(2-(2-Aminoethyl)thiazol-5-yl)phenyl)-3-(3,5-difluorophenyl)urea hydrochloride] | –
17 | 20 to 50% | NCCc1ncc(-c2ccc(NC(=O)Nc3cc(F)c(F)cc3F)cc2)s1 [Example 575, 1-(4-(2-(2-Aminoethyl)thiazol-5-yl)phenyl)-3-(2,4,5-trifluorophenyl)urea hydrochloride] | –
18 | > 50% | CC(C)(CCc1ncc(-c2ccc(NC(=O)Nc3ccccc3Cl)cc2)s1)C(=O)NS(=O)(=O)C(F)(F)F [Example 579, 4-(5-(4-(3-(2-Chlorophenyl)ureido)phenyl)thiazol-2-yl)-2,2-dimethyl-N-((trifluoromethyl)sulfonyl)butanamide] | –
19 | > 50% | CC(C)(CCc1ncc(-c2ccc(NC(=O)Nc3ccccc3F)cc2)s1)C(=O)NS(=O)(=O)C(F)(F)F [Example 580, 4-(5-(4-(3-(2-Fluorophenyl)ureido)phenyl)thiazol-2-yl)-2,2-dimethyl-N-((trifluoromethyl)sulfonyl)butanamide] | –
20 | > 50% | CC(C)(CCc1ncc(-c2ccc(NC(=O)Nc3cc(F)cc(F)c3)cc2)s1)C(=O)NS(=O)(=O)C(F)(F)F [Example 581, 4-(5-(4-(3-(3,5-Difluorophenyl)ureido)phenyl)thiazol-2-yl)-2,2-dimethyl-N-((trifluoromethyl)sulfonyl)butanamide] | –
21 | > 50% | CC(C)(CCc1ncc(-c2ccc(NC(=O)Nc3cc(F)c(F)cc3F)cc2)s1)C(=O)NS(=O)(=O)C(F)(F)F [Example 582, 2,2-Dimethyl-N-((trifluoromethyl)sulfonyl)-4-(5-(4-(3-(2,4,5-trifluorophenyl)ureido)phenyl)thiazol-2-yl)butanamide] | –
22 | > 50% | O=C(Nc1ccc(-c2cnc(C3CCC(C(=O)O)CC3)s2)cc1)Nc1cc(F)c(F)cc1F (stereo not drawn) [Example 584, 4-(5-(4-(3-(2,4,5-Trifluorophenyl)ureido)phenyl)thiazol-2-yl)cyclohexane carboxylic acid] | –
23 | > 50% | CC(C)(O)C1CCC(c2ncc(-c3ccc(NC(=O)Nc4cc(F)c(F)cc4F)cc3)s2)CC1 (stereo not drawn) [Example 585, 1-(4-(2-(4-(2-Hydroxypropan-2-yl)cyclohexyl)thiazol-5-yl)phenyl)-3-(2,4,5-trifluorophenyl)urea] | –
24 | > 50% | CC(C)(N)C1CCC(c2ncc(-c3ccc(NC(=O)Nc4cc(F)c(F)cc4F)cc3)s2)CC1 (stereo not drawn) [Example 587, 1-(4-(2-(4-(2-Aminopropan-2-yl)cyclohexyl)thiazol-5-yl)phenyl)-3-(2,4,5-trifluorophenyl)urea] | –
25 | > 50% | CC(C)(N)C1CCC(c2ncc(-c3ccc(NC(=O)Nc4ccc(F)cc4F)cc3)s2)CC1 (stereo not drawn) [Example 589, 1-(4-(2-(4-(2-Aminopropan-2-yl)cyclohexyl)thiazol-5-yl)phenyl)-3-(2,4-difluorophenyl)urea] | –
26 | > 50% | CC(C)(N)CC1CCC(c2ncc(-c3ccc(NC(=O)Nc4cc(F)c(F)cc4F)cc3)s2)CC1 (stereo not drawn) [Example 591, 1-(4-(2-(4-(2-Amino-2-methylpropyl)cyclohexyl)thiazol-5-yl)phenyl)-3-(2,4,5-trifluorophenyl)urea] | –
